Laboratory results taken from ChEMBL document CHEMBL1201862, “PubChem BioAssay data set” (2004).
The source made the active and inactive calls.

Legend:
[1] = molecular target: T1, E3 ubiquitin-protein ligase XIAP (Homo sapiens, UniProt P98170); assay: small molecules displacing peptide from XIAP – biochemical, IAP family, fluorescence polarization (AID 1018); assay type: functional
[2] = molecular target: T1, E3 ubiquitin-protein ligase XIAP; assay: Counter Screen using XIAP-Bir3 for Chemical Antagonists of Bir1/2 domains of IAP-family anti-apoptotic proteins. [Related pubchem assays (depositor defined):AID1018, AID1449, AID1514, AID1638, AID1749, AID1750, AID488957, AID488963]
[3] = molecular target: G-protein coupled receptor 55 (Homo sapiens, UniProt Q9Y2T6); assay: inhibition of LPI-stimulated GPR55 beta-arrestin translocation – imaging, U2OS, beta-arrestin-GFP, LPI agonist, primary screen (AID 2013); assay type: functional;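 note: antagonist potency measured as reduced agonist-driven arrestin aggregation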
G-protein coupled receptor 55, sequence (Q9Y2T6 whole entry): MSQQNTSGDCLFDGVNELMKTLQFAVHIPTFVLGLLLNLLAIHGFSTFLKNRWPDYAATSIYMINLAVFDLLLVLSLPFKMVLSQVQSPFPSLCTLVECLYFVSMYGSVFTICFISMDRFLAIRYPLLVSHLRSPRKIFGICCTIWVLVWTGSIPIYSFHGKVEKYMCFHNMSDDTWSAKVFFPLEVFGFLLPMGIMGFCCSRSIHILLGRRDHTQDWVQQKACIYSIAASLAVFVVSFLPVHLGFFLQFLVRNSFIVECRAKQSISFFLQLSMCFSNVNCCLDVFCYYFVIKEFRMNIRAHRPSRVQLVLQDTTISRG

[4] = molecular target: T2, Alkaline phosphatase, tissue-nonspecific isozyme (Homo sapiens, UniProt P05186); assay: potency against alkaline phosphatase TNAP – biochemical, luminescent, dose response, SAR follow-up (AID 1056)
T2 sequence (P05186 whole entry): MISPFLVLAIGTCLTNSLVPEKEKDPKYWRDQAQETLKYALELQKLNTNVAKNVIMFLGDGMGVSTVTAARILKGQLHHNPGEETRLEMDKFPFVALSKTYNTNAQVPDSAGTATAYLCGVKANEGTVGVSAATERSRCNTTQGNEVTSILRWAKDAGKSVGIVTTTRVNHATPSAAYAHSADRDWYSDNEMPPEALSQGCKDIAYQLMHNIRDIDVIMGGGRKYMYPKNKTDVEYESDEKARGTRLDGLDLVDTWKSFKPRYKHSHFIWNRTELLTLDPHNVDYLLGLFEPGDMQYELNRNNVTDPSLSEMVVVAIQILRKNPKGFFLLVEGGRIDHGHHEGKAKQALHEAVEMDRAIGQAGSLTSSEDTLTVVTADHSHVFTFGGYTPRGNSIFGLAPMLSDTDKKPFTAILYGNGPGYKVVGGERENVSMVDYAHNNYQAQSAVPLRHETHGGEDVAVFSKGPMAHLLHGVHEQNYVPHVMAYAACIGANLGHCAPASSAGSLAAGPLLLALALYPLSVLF

[5] = molecular target: Alkaline phosphatase, placental type (Homo sapiens, UniProt P05187); assay: human placental alkaline phosphatase inhibition – biochemical, luminescence, confirmation (AID 1512); assay type: functional
Alkaline phosphatase, placental type, sequence (P05187 whole entry): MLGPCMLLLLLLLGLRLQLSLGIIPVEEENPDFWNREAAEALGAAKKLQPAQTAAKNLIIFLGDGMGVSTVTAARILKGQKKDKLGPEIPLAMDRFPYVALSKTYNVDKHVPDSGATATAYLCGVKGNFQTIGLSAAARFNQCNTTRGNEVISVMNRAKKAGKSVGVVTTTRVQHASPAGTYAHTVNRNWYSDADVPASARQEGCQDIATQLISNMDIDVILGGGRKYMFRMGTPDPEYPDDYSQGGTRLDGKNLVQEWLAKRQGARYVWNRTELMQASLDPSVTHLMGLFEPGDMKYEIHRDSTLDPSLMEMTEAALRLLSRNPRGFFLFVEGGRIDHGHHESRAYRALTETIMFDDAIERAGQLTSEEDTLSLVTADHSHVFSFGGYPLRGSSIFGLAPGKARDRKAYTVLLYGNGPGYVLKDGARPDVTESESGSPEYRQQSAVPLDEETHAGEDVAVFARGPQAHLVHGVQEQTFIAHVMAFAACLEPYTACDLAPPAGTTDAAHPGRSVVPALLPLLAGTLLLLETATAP

[6] = THP-1 cell cytotoxicity, dose response, cytotoxicity control for non-replicating M. tuberculosis project (AID 489025); assay type: functional
[7] = HepG2 cell cytotoxicity, dose response, cytotoxicity control for non-replicating M. tuberculosis project (AID 489018); assay type: functional; conditions: Mycobacterium tuberculosis
[8] = NIH3T3 cell viability loss – ATP luminescence, mouse fibroblasts, counter-screen, dose response (AID 2010); assay type: functional, cell-based;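 note: cells exposed to compound for about 90 hours before reading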
[9] = Vero E6 cell cytotoxicity, dose response, cytotoxicity control for non-replicating M. tuberculosis project, secondary assay (AID 492998); assay type: functional, VeroE6; conditions: Vero C1008
[10] = Trypanosoma cruzi growth suppression in host cells – NIH3T3 host cells, beta-gal luminescence, confirmation (AID 2044); assay type: functional, cell-based;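 note: intracellular parasites grown in NIH/3T3 mouse fibroblasts as host cells; luminescent beta-galactosidase reporter signal from transgenic T. cruzi replicating inside host cells; inhibitors lower the luminescence signal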
cells = assay type: functional
[11] = molecular target: NACHT, LRR and PYD domains-containing protein 1 (Homo sapiens, UniProt Q9C000); assay: NALP1 inhibitors in yeast, dose response, luminescent (AID 488860); assay type: functional
NACHT, LRR and PYD domains-containing protein 1, sequence (Q9C000 1-1212 limits assumed): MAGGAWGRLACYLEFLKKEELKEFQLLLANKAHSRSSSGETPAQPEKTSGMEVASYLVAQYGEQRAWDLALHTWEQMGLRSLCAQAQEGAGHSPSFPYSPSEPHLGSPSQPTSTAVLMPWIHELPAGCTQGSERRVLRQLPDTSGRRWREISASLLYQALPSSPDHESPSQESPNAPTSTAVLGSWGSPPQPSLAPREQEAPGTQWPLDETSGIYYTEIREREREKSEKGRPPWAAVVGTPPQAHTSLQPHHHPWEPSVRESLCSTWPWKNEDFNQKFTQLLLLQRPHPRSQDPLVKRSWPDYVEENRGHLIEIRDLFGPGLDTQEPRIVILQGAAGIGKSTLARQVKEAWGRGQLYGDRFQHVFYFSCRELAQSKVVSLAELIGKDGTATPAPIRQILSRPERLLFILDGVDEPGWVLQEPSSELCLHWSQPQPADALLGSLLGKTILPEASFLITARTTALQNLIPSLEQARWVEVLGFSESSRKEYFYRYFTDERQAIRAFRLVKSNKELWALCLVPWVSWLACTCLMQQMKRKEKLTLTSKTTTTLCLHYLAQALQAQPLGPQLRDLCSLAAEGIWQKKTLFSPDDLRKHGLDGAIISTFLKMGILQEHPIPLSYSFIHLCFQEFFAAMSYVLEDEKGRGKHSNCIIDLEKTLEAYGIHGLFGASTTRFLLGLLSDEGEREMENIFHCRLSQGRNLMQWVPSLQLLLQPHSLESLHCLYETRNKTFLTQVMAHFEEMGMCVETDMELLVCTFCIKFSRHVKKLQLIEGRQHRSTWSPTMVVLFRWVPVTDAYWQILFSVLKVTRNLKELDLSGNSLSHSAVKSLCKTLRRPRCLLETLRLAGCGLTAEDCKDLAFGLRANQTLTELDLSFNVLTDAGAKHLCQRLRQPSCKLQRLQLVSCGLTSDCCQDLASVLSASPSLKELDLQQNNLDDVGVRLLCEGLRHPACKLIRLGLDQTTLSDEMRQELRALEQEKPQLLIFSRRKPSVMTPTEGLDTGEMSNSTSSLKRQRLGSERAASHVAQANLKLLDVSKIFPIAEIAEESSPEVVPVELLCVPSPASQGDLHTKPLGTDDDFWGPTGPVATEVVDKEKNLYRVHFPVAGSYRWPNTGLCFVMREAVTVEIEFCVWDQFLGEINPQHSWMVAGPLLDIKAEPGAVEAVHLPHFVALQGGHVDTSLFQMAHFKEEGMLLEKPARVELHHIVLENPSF
NACHT, LRR and PYD domains-containing protein 1, sequence (Q9C000 1213-1473 limits assumed): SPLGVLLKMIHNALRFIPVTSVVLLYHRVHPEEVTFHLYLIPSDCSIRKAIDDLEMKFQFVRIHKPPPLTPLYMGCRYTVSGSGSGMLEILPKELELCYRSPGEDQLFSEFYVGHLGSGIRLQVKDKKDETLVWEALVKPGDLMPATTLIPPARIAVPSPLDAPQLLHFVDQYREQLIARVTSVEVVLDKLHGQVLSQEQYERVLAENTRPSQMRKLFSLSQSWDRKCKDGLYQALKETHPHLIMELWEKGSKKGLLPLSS

Saccharomyces cerevisiae = assay: S. cerevisiae Caspase-1/ASC signal blockers IC50, NALP1 inhibitor project selectivity test (AID 488863); assay type: functional, organism-based

T1 sequence (P98170 whole entry): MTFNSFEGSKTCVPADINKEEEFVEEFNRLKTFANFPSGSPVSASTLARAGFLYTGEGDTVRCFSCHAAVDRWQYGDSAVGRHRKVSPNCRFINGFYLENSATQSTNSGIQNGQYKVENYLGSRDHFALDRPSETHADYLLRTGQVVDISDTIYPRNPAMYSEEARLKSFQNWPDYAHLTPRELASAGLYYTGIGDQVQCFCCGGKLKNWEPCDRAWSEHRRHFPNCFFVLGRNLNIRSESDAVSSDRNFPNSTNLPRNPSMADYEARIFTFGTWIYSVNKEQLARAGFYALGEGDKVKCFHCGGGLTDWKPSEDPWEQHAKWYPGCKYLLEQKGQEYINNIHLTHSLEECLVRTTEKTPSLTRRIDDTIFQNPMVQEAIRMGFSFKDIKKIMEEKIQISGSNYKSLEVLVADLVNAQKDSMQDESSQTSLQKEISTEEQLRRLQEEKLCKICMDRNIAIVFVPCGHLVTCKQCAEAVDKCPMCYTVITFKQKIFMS

Question: Which IC50 [1] does the source give for `CCCS(=O)(=O)N1CCN(C(=O)c2ccc(-c3ccccc3)cc2)CC1` here?
Answer: > 100 µM (not active)

Question: And the IC50 [2]?
Answer: > 100 µM (inactive)

Question: For `CC1CN(S(=O)(=O)c2cccc(C(=O)Nc3ccc(S(=O)(=O)Nc4ncccn4)cc3)c2)CC(C)O1` (stereo not given), which IC50 [1] is on record?
Answer: > 100 µM (not active)

Question: What about the IC50 [2] of the same compound?
Answer: > 100 µM (inactive)

Question: For `O=C(O)c1ccc(Cl)c(S(=O)(=O)Nc2ccc(OCc3ccccc3)cc2)c1`, which IC50 [3] is on record?
Answer: 4.05 µM (active)

Question: Which IC50 [4] does the source give for `CCn1c(SCC(=O)c2ccc(O)c(O)c2)nnc1-c1ccc(Cl)cc1` here?
Answer: > 100 µM (inactive)

Question: What about the IC50 [5] of the same compound?
Answer: 8.76 µM (active)

Question: Which CC50 [6] does the source give for `COc1ccc(-c2nnc(NC(=O)c3ccc(S(=O)(=O)N4COCC4(C)C)cc3)o2)cc1` here?
Answer: 7.22 µM (active)

Question: And the CC50 [7]?
Answer: 8.49 µM (active)

Question: What about the EC50 [8] of the same compound?
Answer: 7.83 µM (active)

Question: What about the CC50 [9] of the same compound?
Answer: 6.01 µM (active)

Question: What about the EC50 [10] of the same compound?
Answer: 2.09 µM (active)

Question: And the IC50 (cells)?
Answer: 6.25 µM (active)

Question: For `CC(C)NC(=O)CCCOc1ccc(Cl)cc1Cl`, which IC50 [11] is on record?
Answer: 40 µM (active)

Question: What about the IC50 (Saccharomyces cerevisiae) of the same compound?
Answer: 35.8 µM (active)
